From article doi:10.1101/2024.08.13.607785v1 (biorxiv, 2024)
Like-named read-outs stand apart in the source and are kept apart here.

Key:
Experiment in all cases: biochemical
Parameters in all cases: species or system mixed lysate of K562, MV4-11, THP-1, NCI-H1155
[1] = target: Isoform 2 of Cyclin-dependent kinase 17 ; CDK17 ; Q00537-2 (Homo sapiens, UniProt Q00537)
[2] = target: Cyclin-dependent kinase 10 ; CDK10 ; Q15131 (Homo sapiens, UniProt Q15131)
[3] = target: Cyclin-dependent kinase 13 ; CDK13 ; Q14004 (Homo sapiens, UniProt Q14004)
[4] = target: Non-receptor tyrosine-protein kinase TYK2 ; TYK2 ; P29597 (Homo sapiens, UniProt P29597)
[5] = target: Cyclin-dependent kinase 6 ; CDK6 ; Q00534 (Homo sapiens, UniProt Q00534)
Chain of Cyclin-dependent kinase 6 ; CDK6 ; Q00534 (Q00534 whole entry, one chain of several): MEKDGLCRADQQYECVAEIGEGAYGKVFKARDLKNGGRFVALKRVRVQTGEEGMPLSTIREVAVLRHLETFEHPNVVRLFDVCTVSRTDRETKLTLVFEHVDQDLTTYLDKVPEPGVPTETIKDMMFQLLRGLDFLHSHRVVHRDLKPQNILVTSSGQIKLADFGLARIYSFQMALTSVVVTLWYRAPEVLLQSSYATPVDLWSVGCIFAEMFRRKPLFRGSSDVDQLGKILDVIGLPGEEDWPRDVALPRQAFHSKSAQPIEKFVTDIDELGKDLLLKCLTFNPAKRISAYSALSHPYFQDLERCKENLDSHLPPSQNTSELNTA

[6] = target: Cyclin-dependent kinase 12 ; CDK12 ; Q9NYV4 (Homo sapiens, UniProt Q9NYV4)
Chain of Cyclin-dependent kinase 12 ; CDK12 ; Q9NYV4 (Q9NYV4 whole entry, one chain of several): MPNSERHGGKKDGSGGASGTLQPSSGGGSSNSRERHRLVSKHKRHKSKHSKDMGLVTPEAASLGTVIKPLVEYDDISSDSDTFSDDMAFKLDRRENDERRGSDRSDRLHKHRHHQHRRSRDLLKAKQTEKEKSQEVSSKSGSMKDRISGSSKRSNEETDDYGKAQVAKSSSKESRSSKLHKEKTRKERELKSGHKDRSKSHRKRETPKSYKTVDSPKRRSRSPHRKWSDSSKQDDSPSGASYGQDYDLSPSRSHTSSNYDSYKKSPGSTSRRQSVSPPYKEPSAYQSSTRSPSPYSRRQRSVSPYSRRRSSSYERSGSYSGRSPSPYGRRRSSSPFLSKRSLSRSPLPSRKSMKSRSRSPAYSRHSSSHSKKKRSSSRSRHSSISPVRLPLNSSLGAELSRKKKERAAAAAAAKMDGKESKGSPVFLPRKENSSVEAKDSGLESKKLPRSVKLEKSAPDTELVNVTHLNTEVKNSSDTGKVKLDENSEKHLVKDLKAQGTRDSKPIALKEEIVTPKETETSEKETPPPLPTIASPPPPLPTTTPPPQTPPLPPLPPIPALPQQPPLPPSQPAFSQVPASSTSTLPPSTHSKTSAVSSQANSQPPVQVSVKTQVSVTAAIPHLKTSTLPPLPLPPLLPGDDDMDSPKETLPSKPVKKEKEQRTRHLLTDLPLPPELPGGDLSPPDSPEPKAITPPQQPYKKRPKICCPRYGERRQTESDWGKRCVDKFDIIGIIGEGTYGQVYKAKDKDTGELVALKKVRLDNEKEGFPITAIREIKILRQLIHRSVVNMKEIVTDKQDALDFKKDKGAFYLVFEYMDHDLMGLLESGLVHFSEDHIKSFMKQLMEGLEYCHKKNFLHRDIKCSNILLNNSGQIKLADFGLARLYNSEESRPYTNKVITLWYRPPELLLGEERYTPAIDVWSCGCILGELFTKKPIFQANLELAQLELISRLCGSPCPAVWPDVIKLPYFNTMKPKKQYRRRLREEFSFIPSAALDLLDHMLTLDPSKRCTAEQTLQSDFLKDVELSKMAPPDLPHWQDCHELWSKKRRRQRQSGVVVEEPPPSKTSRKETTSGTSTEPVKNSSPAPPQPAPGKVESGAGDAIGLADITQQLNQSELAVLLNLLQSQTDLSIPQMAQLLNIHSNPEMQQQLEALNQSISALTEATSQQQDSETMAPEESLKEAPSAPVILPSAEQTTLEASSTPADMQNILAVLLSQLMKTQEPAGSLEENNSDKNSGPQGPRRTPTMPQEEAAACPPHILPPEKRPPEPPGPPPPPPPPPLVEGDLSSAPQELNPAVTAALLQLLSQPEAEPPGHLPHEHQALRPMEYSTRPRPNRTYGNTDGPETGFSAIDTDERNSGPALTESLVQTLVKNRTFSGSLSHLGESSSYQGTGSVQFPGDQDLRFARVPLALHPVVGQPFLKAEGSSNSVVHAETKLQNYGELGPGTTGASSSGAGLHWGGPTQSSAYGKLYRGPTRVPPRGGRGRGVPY

[7] = target: T1, Interleukin-1 receptor-associated kinase 3 ; IRAK3 ; Q9Y616 (Homo sapiens, UniProt Q9Y616)
T1 sequence (Q9Y616 1-596): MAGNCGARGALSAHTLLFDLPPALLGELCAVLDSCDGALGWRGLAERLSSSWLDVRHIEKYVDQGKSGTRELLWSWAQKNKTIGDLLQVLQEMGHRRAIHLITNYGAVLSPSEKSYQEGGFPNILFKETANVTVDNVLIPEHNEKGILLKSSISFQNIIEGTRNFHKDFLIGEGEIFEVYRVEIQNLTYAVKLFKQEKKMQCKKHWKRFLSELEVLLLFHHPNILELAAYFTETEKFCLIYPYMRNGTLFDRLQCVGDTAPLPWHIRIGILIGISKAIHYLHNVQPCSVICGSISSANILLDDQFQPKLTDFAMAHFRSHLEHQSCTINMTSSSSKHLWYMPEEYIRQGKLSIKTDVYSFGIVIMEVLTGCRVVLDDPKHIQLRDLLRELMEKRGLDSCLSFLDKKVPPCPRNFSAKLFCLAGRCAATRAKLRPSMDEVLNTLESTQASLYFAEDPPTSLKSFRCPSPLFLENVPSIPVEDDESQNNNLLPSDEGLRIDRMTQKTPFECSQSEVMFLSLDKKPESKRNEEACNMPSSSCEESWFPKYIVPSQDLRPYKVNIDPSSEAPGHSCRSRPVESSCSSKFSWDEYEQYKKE

[8] = target: Cyclin-dependent kinase 7 ; CDK7 ; P50613 (Homo sapiens, UniProt P50613)
Chain of Cyclin-dependent kinase 7 ; CDK7 ; P50613 (P50613 whole entry, one chain of several): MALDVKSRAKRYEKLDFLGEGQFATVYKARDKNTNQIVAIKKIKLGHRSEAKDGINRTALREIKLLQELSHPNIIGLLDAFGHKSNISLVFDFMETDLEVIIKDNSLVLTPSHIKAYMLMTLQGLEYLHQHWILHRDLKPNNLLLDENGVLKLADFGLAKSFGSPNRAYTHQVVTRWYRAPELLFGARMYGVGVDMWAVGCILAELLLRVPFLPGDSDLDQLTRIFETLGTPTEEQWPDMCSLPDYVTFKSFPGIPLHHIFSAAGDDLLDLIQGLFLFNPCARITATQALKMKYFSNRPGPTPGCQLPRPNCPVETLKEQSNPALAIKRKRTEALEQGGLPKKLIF

[9] = target: Cyclin-dependent kinase 16 ; CDK16 ; Q00536 (Homo sapiens, UniProt Q00536)
[10] = target: Cyclin-dependent kinase 19 ; CDK19 ; Q9BWU1 (Homo sapiens, UniProt Q9BWU1)
[11] = target: Cyclin-dependent kinase 4 ; CDK4 ; P11802 (Homo sapiens, UniProt P11802)
Chain of Cyclin-dependent kinase 4 ; CDK4 ; P11802 (P11802 whole entry, canonical isoform, one chain of several): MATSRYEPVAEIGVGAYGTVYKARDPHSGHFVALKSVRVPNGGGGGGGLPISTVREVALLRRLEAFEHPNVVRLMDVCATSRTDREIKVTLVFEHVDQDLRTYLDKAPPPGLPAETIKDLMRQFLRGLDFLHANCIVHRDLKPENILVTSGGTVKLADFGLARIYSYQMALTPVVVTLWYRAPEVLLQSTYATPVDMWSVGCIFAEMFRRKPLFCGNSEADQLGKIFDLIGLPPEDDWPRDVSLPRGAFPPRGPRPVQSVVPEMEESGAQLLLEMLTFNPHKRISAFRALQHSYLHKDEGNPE

[12] = target: Isoform 4 of TRAF2 and NCK-interacting protein kinase ; TNIK ; Q9UKE5-4 (Homo sapiens, UniProt Q9UKE5)
Chain of Isoform 4 of TRAF2 and NCK-interacting protein kinase ; TNIK ; Q9UKE5-4 (Q9UKE5 whole entry, canonical isoform, one chain of several): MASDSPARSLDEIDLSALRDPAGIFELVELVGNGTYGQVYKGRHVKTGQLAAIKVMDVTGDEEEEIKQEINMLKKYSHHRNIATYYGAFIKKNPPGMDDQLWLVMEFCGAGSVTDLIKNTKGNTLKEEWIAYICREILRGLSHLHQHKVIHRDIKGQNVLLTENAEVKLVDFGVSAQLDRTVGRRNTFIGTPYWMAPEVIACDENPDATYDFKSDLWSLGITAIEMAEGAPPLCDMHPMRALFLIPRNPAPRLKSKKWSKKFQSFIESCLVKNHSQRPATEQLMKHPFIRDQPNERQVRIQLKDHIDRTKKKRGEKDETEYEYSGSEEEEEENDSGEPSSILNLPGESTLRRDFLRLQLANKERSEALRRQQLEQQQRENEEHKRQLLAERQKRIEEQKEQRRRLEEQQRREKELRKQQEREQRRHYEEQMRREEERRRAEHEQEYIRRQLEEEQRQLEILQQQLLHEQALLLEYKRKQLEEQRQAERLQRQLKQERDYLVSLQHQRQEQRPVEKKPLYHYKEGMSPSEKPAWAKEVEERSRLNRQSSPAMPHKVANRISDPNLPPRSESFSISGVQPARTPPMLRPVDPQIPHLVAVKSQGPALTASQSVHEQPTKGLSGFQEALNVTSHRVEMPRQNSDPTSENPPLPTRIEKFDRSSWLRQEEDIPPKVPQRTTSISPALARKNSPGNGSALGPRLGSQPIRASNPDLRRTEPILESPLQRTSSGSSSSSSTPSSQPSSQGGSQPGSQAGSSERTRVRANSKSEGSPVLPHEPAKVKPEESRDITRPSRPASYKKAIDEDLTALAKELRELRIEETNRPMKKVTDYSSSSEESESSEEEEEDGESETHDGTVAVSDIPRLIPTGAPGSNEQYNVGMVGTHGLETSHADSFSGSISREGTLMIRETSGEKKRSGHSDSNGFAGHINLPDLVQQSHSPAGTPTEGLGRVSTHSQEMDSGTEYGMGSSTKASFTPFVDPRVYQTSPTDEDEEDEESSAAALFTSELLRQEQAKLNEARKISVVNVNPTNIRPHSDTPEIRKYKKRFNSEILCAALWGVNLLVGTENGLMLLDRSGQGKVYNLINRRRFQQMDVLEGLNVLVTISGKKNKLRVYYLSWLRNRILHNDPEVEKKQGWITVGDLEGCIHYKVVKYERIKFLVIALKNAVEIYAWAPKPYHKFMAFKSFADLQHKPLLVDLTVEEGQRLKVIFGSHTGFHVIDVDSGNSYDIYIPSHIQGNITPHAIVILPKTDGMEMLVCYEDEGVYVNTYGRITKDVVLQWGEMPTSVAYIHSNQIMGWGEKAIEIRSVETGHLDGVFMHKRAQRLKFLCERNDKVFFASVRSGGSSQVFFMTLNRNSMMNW

[13] = read-out: BAY-1143572 (10 µM) / %Intensity relative to DMSO
[14] = read-out: BAY-1251152 (10 µM) / %Intensity relative to DMSO

Chain of Isoform 2 of Cyclin-dependent kinase 17 ; CDK17 ; Q00537-2 (Q00537 whole entry, canonical isoform, one chain of several): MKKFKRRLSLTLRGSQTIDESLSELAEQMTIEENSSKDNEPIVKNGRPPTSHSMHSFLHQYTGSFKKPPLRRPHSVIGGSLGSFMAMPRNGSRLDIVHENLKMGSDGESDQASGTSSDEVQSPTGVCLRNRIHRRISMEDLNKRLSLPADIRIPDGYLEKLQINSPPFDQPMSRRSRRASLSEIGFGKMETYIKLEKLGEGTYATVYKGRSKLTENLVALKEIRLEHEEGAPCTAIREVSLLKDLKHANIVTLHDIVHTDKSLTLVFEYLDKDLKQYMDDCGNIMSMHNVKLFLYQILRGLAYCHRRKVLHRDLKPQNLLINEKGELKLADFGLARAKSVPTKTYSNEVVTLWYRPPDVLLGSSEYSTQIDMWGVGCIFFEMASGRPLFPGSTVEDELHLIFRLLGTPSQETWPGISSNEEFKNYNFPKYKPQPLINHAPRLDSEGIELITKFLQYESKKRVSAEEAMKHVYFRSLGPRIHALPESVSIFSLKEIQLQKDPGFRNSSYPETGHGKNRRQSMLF
Chain of Cyclin-dependent kinase 10 ; CDK10 ; Q15131 (Q15131 whole entry, one chain of several): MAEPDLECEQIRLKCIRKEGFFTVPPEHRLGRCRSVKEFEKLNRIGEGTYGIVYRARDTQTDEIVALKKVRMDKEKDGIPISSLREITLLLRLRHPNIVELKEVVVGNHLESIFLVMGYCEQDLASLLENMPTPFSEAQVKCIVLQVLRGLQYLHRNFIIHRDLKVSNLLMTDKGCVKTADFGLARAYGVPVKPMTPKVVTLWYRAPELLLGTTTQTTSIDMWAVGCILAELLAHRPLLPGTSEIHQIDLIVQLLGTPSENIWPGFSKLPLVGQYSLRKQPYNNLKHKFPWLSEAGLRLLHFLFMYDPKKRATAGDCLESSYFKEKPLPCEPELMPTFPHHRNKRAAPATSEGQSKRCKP

`COc1cc(F)ccc1-c1ncnc(Nc2cccc(C[S@](C)(=N)=O)c2)n1` [BAY-1143572] showed a remaining activity at 10 µM [1, 13] of 66.1%, a remaining activity at 10 µM [2, 13] of 29.6% and a remaining activity at 10 µM [3, 13] of 89.2%. The remaining activity at 10 µM [4, 13] was 27.1%, the remaining activity at 10 µM [5, 13] was 94.2% and the remaining activity at 10 µM [6, 13] was 64.7%. It also gave a remaining activity at 10 µM [7, 13] of 24%, a remaining activity at 10 µM [8, 13] of 117% and a remaining activity at 10 µM [9, 13] of 58.1%. It also gave a remaining activity at 10 µM [10, 13] of 97.8%, a remaining activity at 10 µM [11, 13] of 133% and a remaining activity at 10 µM [12, 13] of 78.3%.

For `COc1cc(F)ccc1-c1cc(Nc2cc(CS(C)(=N)=O)ccn2)ncc1F` (stereo not drawn) [BAY-1251152], the remaining activity at 10 µM [1, 14] was 49.4%, the remaining activity at 10 µM [2, 14] was 16.9% and the remaining activity at 10 µM [3, 14] was 58.8%. It also gave a remaining activity at 10 µM [4, 14] of 89.6%, a remaining activity at 10 µM [5, 14] of 82.1% and a remaining activity at 10 µM [6, 14] of 37.5%. For the same compound, the remaining activity at 10 µM [7, 14] was 86.2%, the remaining activity at 10 µM [8, 14] was 110% and the remaining activity at 10 µM [9, 14] was 25.7%. For the same compound, the remaining activity at 10 µM [10, 14] was 90.5%, the remaining activity at 10 µM [11, 14] was 121% and the remaining activity at 10 µM [12, 14] was 37.2%.
